Experimental data from PMC6131557, “Selective Cytotoxicity of Dihydroorotate Dehydrogenase Inhibitors to Human Cancer Cells Under Hypoxia and Nutrient-Deprived Conditions” (Frontiers in Pharmacology, 2018).
Like-named read-outs stand apart in the source and are kept apart here.

How the values were obtained:
[1] = molecular target: T1, human dihydroorotate dehydrogenase (HsDHODH) (Homo sapiens, UniProt Q02127); assay: Inhibition of recombinant human DHODH enzyme activity; assay type: biochemical; settings: recombinant human DHODH; purified enzyme fixed at 10 nM; read-out: IC50 (nM), inhibition of human DHODH
T1 construct: made in house

DLD-1 cells = assay: Cytotoxicity assay (Cell Counting Kit-8 / WST-8) on DLD-1 cells; assay type: cell-based, human; settings: for IC50: Homo sapiens
Description: (§1) For hypoxia and nutrient-deprived culture conditions, cells were incubated under 1% oxygen in glucose and glutamine-free DMEM (Gibco) without FBS.
(§2) DLD-1 or HDF cells were seeded at 2.5 × 10^4 cells/well on a 96-well plate with normal medium, and cultured overnight under normal culture condition. The cells were washed with PBS and the medium was replaced to either normal medium or glucose and glutamine-free DMEM without FBS. Test compounds or DMSO as a control were added to the wells. The cells in normal medium were cultured under normal culture conditions, while cells in nutrient-deprived medium were cultured under hypoxia condition. After 24 or 48 h incubation, the cells were washed with PBS, 100 μl of fresh normal medium, and 10 μl of Cell Counting Kit-8 solution (Donjindo, Japan) was added to each well. After 3 h incubation under normal culture condition, the absorbance was measured at 450 nm using SpectraMax M2e-TUY microplate reader (Molecular Devices). Cell viability of test wells was calculated based on absorbance of control wells containing DMSO according to manufacturer’s protocol.

HDF cells = assay: Cytotoxicity assay (Cell Counting Kit-8 / WST-8) on HDF cells; assay type: cell-based; settings: Homo sapiens
Description: as §1, §2

Complexes I–III = assay: NADH-cytochrome c reductase (complexes I–III) activity, bovine mitochondria; assay type: biochemical
Description: (§3) Recombinant human DHODH was purified, crystallized, and assayed as previously described ([Inaoka et al., 2016]) without modification. Bovine mitochondrial fractions were prepared as previously described ([Kita et al., 1988]) and NADH dehydrogenase (complex I), succinate:quinone reductase (complex II), quinol oxidase (complexes III–IV), NADH-cytochrome c reductase (complexes I–III), and succinate-cytochrome c (complexes II–III) activities were assayed following an established method ([Takamiya et al., 1986]; [Miyadera et al., 2001]; [Matsumoto et al., 2008]; [Kido et al., 2010]; [Nihashi et al., 2017]).

Complex II–III = assay: Succinate-cytochrome c reductase (complexes II–III) activity, bovine mitochondria; assay type: biochemical
Description: as §3

Complex I = assay: NADH dehydrogenase (complex I) activity, bovine mitochondria; assay type: biochemical; settings: at 5 μM
Description: as §3

Complex II = molecular target: T2, Complex II (Bos taurus, UniProt P35720+Q3T189+Q95123); assay: Succinate:quinone reductase (complex II) activity, bovine mitochondria; assay type: biochemical
T2 construct: from tissue; host or cells: bovine mitochondrial fraction / sub-mitochondrial particles

Complex III = molecular target: T3, Complex III (Bos taurus, UniProt P00157); assay: Quinol oxidase (complex III) activity, bovine mitochondria; assay type: biochemical; settings: ubiquinol oxidase activity
T3 construct: from tissue; host or cells: bovine mitochondrial fraction / sub-mitochondrial particles

HBC-4 = assay: 39-cancer cell panel assay: HBC-4; assay type: cell-based; settings: Homo sapiens, HBC4, Br
BSY-1 = assay: 39-cancer cell panel assay: BSY-1; assay type: cell-based; settings: Homo sapiens, Br
MDA-MB-231 = assay: 39-cancer cell panel assay: MDA-MB-231; assay type: cell-based; settings: Homo sapiens, Br
U251 = assay: 39-cancer cell panel assay: U251; assay type: cell-based; settings: Homo sapiens, U-251, CNS
SF-268 = assay: 39-cancer cell panel assay: SF-268; assay type: cell-based; settings: Homo sapiens, CNS
SF-295 = assay: 39-cancer cell panel assay: SF-295; assay type: cell-based; settings: Homo sapiens, CNS
SF-539 = assay: 39-cancer cell panel assay: SF-539; assay type: cell-based; settings: Homo sapiens, CNS
SNB-78 = assay: 39-cancer cell panel assay: SNB-78; assay type: cell-based; settings: Homo sapiens, CNS
HCC2998 = assay: 39-cancer cell panel assay: HCC2998; assay type: cell-based; settings: Homo sapiens, HCC 2998, Co
KM-12 = assay: 39-cancer cell panel assay: KM-12; assay type: cell-based, human; settings: Co
HT-29 = assay: 39-cancer cell panel assay: HT-29; assay type: cell-based; settings: Homo sapiens, Co
HCT-15 = assay: 39-cancer cell panel assay: HCT-15; assay type: cell-based; settings: Homo sapiens, Co
HCT-116 = assay: 39-cancer cell panel assay: HCT-116; assay type: cell-based; settings: Homo sapiens, Co
NCI-H23 = assay: 39-cancer cell panel assay: NCI-H23; assay type: cell-based; settings: Homo sapiens, Lu
NCI-H226 = assay: 39-cancer cell panel assay: NCI-H226; assay type: cell-based; settings: Homo sapiens, Lu
NCI-H522 = assay: 39-cancer cell panel assay: NCI-H522; assay type: cell-based; settings: Homo sapiens, Lu
NCI-H460 = assay: 39-cancer cell panel assay: NCI-H460; assay type: cell-based; settings: Homo sapiens, Lu
A549 = assay: 39-cancer cell panel assay: A549; assay type: cell-based; settings: Homo sapiens, Lu
DMS273 = assay: 39-cancer cell panel assay: DMS273; assay type: cell-based; settings: Homo sapiens, DMS-273, Lu
DMS114 = assay: 39-cancer cell panel assay: DMS114; assay type: cell-based; settings: Homo sapiens, DMS-114, Lu
OVCAR-3 = assay: 39-cancer cell panel assay: OVCAR-3; assay type: cell-based; settings: Homo sapiens, Ov
OVCAR-4 = assay: 39-cancer cell panel assay: OVCAR-4; assay type: cell-based; settings: Homo sapiens, Ov
OVCAR-5 = assay: 39-cancer cell panel assay: OVCAR-5; assay type: cell-based; settings: Homo sapiens, Ov
OVCAR-8 = assay: 39-cancer cell panel assay: OVCAR-8; assay type: cell-based; settings: Homo sapiens, Ov
ACHN = assay: 39-cancer cell panel assay: ACHN; assay type: cell-based; settings: Homo sapiens, Re
MKN1 = assay: 39-cancer cell panel assay: MKN1; assay type: cell-based; settings: Homo sapiens, MKN-1, St
MKN7 = assay: 39-cancer cell panel assay: MKN7; assay type: cell-based; settings: Homo sapiens, MKN-7, St
MKN45 = assay: 39-cancer cell panel assay: MKN45; assay type: cell-based; settings: Homo sapiens, MKN-45, St
DU-145 = assay: 39-cancer cell panel assay: DU-145; assay type: cell-based; settings: Homo sapiens, Pro

T2 sequence (P31039 45-665 partner limits assumed): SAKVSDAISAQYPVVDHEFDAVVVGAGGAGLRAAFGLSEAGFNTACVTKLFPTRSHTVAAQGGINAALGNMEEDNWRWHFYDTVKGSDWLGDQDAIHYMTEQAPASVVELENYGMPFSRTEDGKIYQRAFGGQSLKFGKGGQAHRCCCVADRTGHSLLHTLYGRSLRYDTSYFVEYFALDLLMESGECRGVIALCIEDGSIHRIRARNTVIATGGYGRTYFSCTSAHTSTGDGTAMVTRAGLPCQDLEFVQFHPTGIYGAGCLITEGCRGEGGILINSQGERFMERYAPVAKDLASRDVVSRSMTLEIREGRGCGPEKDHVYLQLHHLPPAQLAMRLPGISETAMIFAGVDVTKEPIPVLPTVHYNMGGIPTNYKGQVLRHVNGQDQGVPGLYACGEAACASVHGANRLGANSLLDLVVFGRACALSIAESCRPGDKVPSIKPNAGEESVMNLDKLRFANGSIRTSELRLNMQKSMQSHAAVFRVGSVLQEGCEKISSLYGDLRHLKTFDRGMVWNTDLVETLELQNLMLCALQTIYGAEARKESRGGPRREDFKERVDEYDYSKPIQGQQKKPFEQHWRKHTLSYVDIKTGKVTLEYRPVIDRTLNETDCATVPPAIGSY
T2 sequence (Q3T189 29-280): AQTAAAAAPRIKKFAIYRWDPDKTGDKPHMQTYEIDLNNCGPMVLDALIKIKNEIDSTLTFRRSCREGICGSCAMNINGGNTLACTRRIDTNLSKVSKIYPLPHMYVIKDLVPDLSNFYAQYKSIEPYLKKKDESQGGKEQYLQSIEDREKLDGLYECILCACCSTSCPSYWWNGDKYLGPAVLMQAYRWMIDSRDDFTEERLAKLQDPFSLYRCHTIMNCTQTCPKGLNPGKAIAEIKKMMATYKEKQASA
T2 sequence (P35720 30-169): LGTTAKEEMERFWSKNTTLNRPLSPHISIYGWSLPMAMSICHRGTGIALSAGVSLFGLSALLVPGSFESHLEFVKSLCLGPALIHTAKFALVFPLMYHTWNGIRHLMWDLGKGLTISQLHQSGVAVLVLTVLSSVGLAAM
T2 sequence (Q95123 56-158): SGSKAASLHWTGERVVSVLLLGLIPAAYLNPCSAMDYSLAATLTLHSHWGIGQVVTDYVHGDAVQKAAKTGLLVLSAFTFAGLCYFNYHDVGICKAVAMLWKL
T1 sequence (Q02127 whole entry): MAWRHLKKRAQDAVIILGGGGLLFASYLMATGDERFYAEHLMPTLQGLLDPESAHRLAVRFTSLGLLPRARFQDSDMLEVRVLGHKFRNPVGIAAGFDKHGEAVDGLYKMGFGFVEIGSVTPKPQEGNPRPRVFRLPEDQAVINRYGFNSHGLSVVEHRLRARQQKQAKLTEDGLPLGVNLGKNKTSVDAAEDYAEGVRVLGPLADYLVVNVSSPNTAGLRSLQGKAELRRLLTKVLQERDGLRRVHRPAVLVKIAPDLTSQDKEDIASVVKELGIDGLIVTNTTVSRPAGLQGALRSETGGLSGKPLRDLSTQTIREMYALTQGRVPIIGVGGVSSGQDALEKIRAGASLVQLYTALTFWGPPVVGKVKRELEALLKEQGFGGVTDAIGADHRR

For CC(C)=CCC/C(C)=C/CC/C(C)=C/Cc1c(O)c(Cl)c(C)c(C=O)c1O [Compound 8], the IC50 [1] was about 5 nM, the “IC50 fold lower than 1” value (DLD-1 cells; DLD-1, 24 h, hypoxia nutrient-deprived, versus compound 1) was 20 fold and the IC50 (DLD-1 cells; read-out: IC50 (μM) DLD-1 (24 h) Hypoxia nutrient (-), DLD-1, 24 h, hypoxia (1% oxygen), nutrient (-)) was 0.066 ± 0.042 µM. The IC50 (DLD-1 cells; read-out: IC50 (μM) DLD-1 (24 h) Normoxia nutrient (+), DLD-1, 24 h, normoxia, nutrient (+)) was 81 ± 24 µM, the IC50 (DLD-1 cells; DLD-1, 48 h, hypoxia (1% oxygen), nutrient (-), read-out: IC50 (μM) DLD-1 (48 h) Hypoxia nutrient (-)) was 0.024 ± 0.003 µM and the IC50 (DLD-1 cells; DLD-1, 48 h, normoxia, nutrient (+), read-out: IC50 (μM) DLD-1 (48 h) Normoxia nutrient (+)) was 38 ± 3.3 µM. The “selectivity ratio, microenvironment versus normal culture condition” value (DLD-1 cells; hypoxia and nutrient-deprived versus normal culture) was “over 1000 fold”, the IC50 (HDF cells; read-out: IC50 (μM) HDF (24 h) Hypoxia nutrient (-), hypoxia (1% oxygen), nutrient (-)) was 0.16 ± 0.023 µM and the IC50 (HDF cells; read-out: IC50 (μM) HDF (24 h) Normoxia nutrient (+), normoxia, nutrient (+)) was 61 ± 5.3 µM. For the same compound, the IC50 (Complexes I–III) was 0.048 ± 0.001 µM, the IC50 (Complex II–III) was 0.12 ± 0.013 µM and the “Inhibition (%) Complex I” value (Complex I) was 43 ± 1.8%. For the same compound, the inhibition at 5 µM (Complex II) was 8.2 ± 4.9%, the inhibition at 5 µM (Complex III) was over 80% and the GI50 (HBC-4) was 2.2 µM. The GI50 (BSY-1) was 13 µM, the GI50 (MDA-MB-231) was 2.8 µM and the GI50 (U251) was 0.43 µM. It also gave a GI50 (SF-268) of 0.93 µM, a GI50 (SF-295) of 1.3 µM and a GI50 (SF-539) of 0.24 µM. The GI50 (SNB-78) was 16 µM, the GI50 (HCC2998) was 12 µM and the “GI50 (μM) KM-12” value (KM-12) was 2.0 µM. The GI50 (HT-29) was 1.1 µM, the GI50 (HCT-15) was 0.043 µM and the GI50 (HCT-116) was 0.46 µM. It also gave a GI50 (NCI-H23) of 2.8 µM, a GI50 (NCI-H226) of 10 µM and a GI50 (NCI-H522) of 1.2 µM. For the same compound, the GI50 (NCI-H460) was 0.21 µM, the GI50 (A549) was 0.77 µM and the GI50 (DMS273) was 0.45 µM. For the same compound, the GI50 (DMS114) was 2.5 µM, the GI50 (OVCAR-3) was 1.9 µM and the GI50 (OVCAR-4) was 13 µM. The GI50 (OVCAR-5) was 6.6 µM, the GI50 (OVCAR-8) was 0.97 µM and the GI50 (ACHN) was 0.79 µM. For the same compound, the GI50 (MKN1) was 8.2 µM, the GI50 (MKN7) was 2.1 µM and the GI50 (MKN45) was 6.4 µM. It also gave a GI50 (DU-145) of 0.26 µM.
